Legend:
[1] = test system: KRAS (DNA, G4) AGGGCGGTGTGGGAAGAGGGAAGAGGGGGAGG; test: RLS intensity ratio; Job plot; conditions: 50 mM KCl; 20 mM Tris-HCl pH 7.4, 1 mM Na2EDTA, 5 µM porphyrin
[2] = test system: Oxy28 (DNA, G4) GGGGTTTTGGGGTTTTGGGGTTTTGGGG; test: RLS intensity ratio; conditions: 50 mM KCl; 20 mM Tris-HCl pH 7.0, 1 mM Na2EDTA, 5 µM porphyrin, 10 µM DNA
[3] = test system: Hum24 (DNA, G4) TTAGGGTTAGGGTTAGGGTTAGGG; test: RLS intensity ratio; conditions: 50 mM KCl; 20 mM Tris-HCl pH 7.0, 1 mM Na2EDTA, 5 µM porphyrin, 10 µM DNA
[4] = test system: C-MYC (DNA, G4) TGAGGGTGGGGAGGGTGGGGAA; test: RLS intensity ratio; conditions: 50 mM KCl; 20 mM Tris-HCl pH 7.0, 1 mM Na2EDTA, 5 µM porphyrin, 10 µM DNA
[5] = test system: CatG4 (DNA, G4) TGGGTAGGGCGGGTTGGG; test: RLS intensity ratio; conditions: 50 mM KCl; 20 mM Tris-HCl pH 7.0, 1 mM Na2EDTA, 5 µM porphyrin, 10 µM DNA
[6] = test system: AS1411 (DNA, G4) GGTGGTGGTGGTTGTGGTGGTGGTGG; test: RLS intensity ratio; conditions: 50 mM KCl; 20 mM Tris-HCl pH 7.0, 1 mM Na2EDTA, 5 µM porphyrin, 10 µM DNA
[7] = test system: KRAS (DNA, G4) AGGGCGGTGTGGGAAGAGGGAAGAGGGGGAGG; test: RLS ratio I702/I652, absorption, fluorescence; Job plot; conditions: 50 mM KCl; 20 mM Tris-HCl pH 7.0, 1 mM Na2EDTA, 5 µM porphyrin

binding [1] | binding [2] | binding [3] | binding [4] | binding [5] | binding [6] | binding [7] | SMILES
yes |  |  |  |  |  |  | C[N+]1(CCO)CC[N+](C)(CCOc2ccc(-c3c4nc(c(-c5ccc(OCC[N+]6(C)CC[N+](C)(CCO)CC6)cc5)c5ccc([nH]5)c(-c5ccc(OCC[N+]6(C)CC[N+](C)(CCO)CC6)cc5)c5nc(c(-c6ccc(OCC[N+]7(C)CC[N+](C)(CCO)CC7)cc6)c6ccc3[nH]6)C=C5)C=C4)cc2)CC1 (stereo not shown)
 | yes | yes | yes | yes | yes | yes | C[N+]1(CCOc2ccc(-c3c4nc(c(-c5ccc(OCC[N+]6(C)CCCCC6)cc5)c5ccc([nH]5)c(-c5ccc(OCC[N+]6(C)CCCCC6)cc5)c5nc(c(-c6ccc(OCC[N+]7(C)CCCCC7)cc6)c6ccc3[nH]6)C=C5)C=C4)cc2)CCCCC1

Source: paper PMC6451126 (2019)
